From patent US4263295A, “Psychoactive 3-(1-2-diarylethyl)-1,4,5,6-tetrahydro-1,2,4-triazines and their method of use” (The Dow Chemical Company, priority 1977, dated 1981)
Where a name gives a salt, the structure may show the parent alone.

Experiments:
[1] = test system: serum corticosteroid levels; experiment: Block of stress-induced rise of serum corticosteroid levels (antianxiety); assay type: in vivo; settings: stressed male rats, 20 mg/kg i.p.; for response vs control in vivo at 20 mg/kg: Rattus norvegicus, ip, saline control 100, values below 100% are indicative of activity, read-out: Serum Corticosteroid Levels μg %
Description: See British Medical Journal, 1971 (2), p. 310-313. Corticosteroid levels were compared between stressed male rats pretreated with 20 mg/kg of the active compound given by intraperitoneal injection to corticosteroid levels of stressed male rats pretreated with saline. Blood (3 ml) was collected by means of cardiac puncture after methoxyflurane anesthesia. Following clotting, the blood was centrifuged to separate the serum for use in the corticosteroid analysis. The analysis was carried out by adding 5 ml of methylene chloride to 300 μl of the serum sample and vortexing the sample for 15-20 seconds. The samples were then centrifuged at 41 xg for about 5 minutes. The lipid layer was removed by aspiration and 3 ml of the methylene chloride fraction was transferred to a clean tube. To this sample, 3 ml of fluorescence reagent (25% ethanol and 75% concentrated sulfuric acid) was added and vortexed for 5 seconds. Fluorescence development was complete in 20 minutes and was read on a Perkin-Elmer® fluorometer Model 204 at an exciter wavelength of 470 mμ and an analyzer wavelength of 530 mμ. This assay measures free cortisol and corticosterone. The corticosteroid values were calculated as follows: [formula] […] Values below 100% are indicative of activity.

[2] = test system: reserpine-induced ptosis; experiment: Protection against reserpine-induced ptosis (antidepressant); assay type: in vivo; settings: Mus musculus; mice, 30 mg/kg i.p.; reserpine 2.5 mg/kg s.c. after 30 minutes; graded after 45 minutes; saline control 0
Description: Groups of four mice were administered 30 mg/kg of the 3-(1,2-diarylethyl)-1,4,5,6-tetrahydro-1,2,4-triazine compounds by intraperitoneal injection via an aqueous carrier. A similar group of mice serving as controls were injected only with the carrier. After 30 minutes, both groups of mice were injected subcutaneously with 2.5 mg/kg of reserpine.
Animals injected with the triazine compound were graded after 45 minutes on the following basis: no ptosis=0, partial ptosis=1, complete ptosis=2. Complete protection against reserpine-induced ptosis gives a value of 0 or 100%.

[3] = test system: depression; settings: U.S. Pat. No. 3,471,486; Journal of Medicinal Chemistry, 12, 257 (1969); cited from earlier work
[4] = test system: anxiety; experiment: Antianxiety activity, test not specified (background and summary statements); assay type: in vivo; settings: test not stated

`Clc1cccc(Cl)c1CC(C1=NNCCN1)c1ccccc1` (stereo not drawn) [Example 13, 3-(2-(2,6-Dichlorophenyl)-1-phenylethyl)-1,4,5,6-tetrahydro-1,2,4-triazine monohydrochloride] gave a response vs control in vivo at 20 mg/kg [1] of 39% and an inhibition at 30 mg/kg [2] of 88%.

With `Cc1ccc(CC(C2=NNCCN2)c2ccccc2)cc1` (stereo not drawn) [Example 6] the response vs control in vivo at 20 mg/kg [1] was 62% and the inhibition at 30 mg/kg [2] was 50%.

`CN1CCNC(C(Cc2ccc(Cl)cc2)c2ccccc2)=N1` (stereo not drawn) [Example 18, 3-(2-(4-Chlorophenyl)-1-phenylethyl)-1,4,5,6-tetrahydro-1-methyl-1,2,4-triazine monohydrochloride] showed a response vs control in vivo at 20 mg/kg [1] of 77% and an inhibition at 30 mg/kg [2] of 50%.

`Fc1cccc(CC(C2=NNCCN2)c2ccccc2)c1` (stereo not drawn) [Example 17] gave a response vs control in vivo at 20 mg/kg [1] of 62% and an inhibition at 30 mg/kg [2] of 25%.

`COc1ccc(C(Cc2ccc(F)cc2)C2=NNCCN2)cc1` (stereo not drawn) [Example 3, 3-(2-(4-Fluorophenyl)-1-(4-methoxyphenyl)ethyl)-1,4,5,6-tetrahydro-1,2,4-triazine monohydrochloride] gave a response vs control in vivo at 20 mg/kg [1] of 82% and an inhibition at 30 mg/kg [2] of 38%.

`CC(=O)N1CCN(C)N=C1C(Cc1ccccc1)c1ccccc1` (stereo not drawn) [Example 19, 4-acetyl-3-(1,2-diphenylethyl)-1,4,5,6-tetrahydro-1-methyl-1,2,4-triazine monohydrochloride] showed a response vs control in vivo at 20 mg/kg [1] of 77% and an inhibition at 30 mg/kg [2] of 13%.

For `c1ccc(CC(C2=NNCCN2)c2ccc3ccccc3c2)cc1` (stereo not drawn) [Example 10, 3-(1-(2-Naphthalenyl)-2-phenylethyl)-1,4,5,6-tetrahydro-1,2,4-triazine monohydrochloride], the response vs control in vivo at 20 mg/kg [1] was 54% and the inhibition at 30 mg/kg [2] was 50%.

Compound `Clc1ccc(CC(C2=NNCCN2)c2ccccc2)cc1Cl` (stereo not drawn) [Example 14] has a response vs control in vivo at 20 mg/kg [1] of 79% and an inhibition at 30 mg/kg [2] of 63%.

With `Cl.Fc1ccc(CC(C2=NNCCN2)c2ccccc2)cc1` (stereo not drawn) [Example 1, 3-(2-(4-fluorophenyl)-1-phenylethyl)-1,4,5,6-tetrahydro-1,2,4-triazine monohydrochloride] the response vs control in vivo at 20 mg/kg [1] was 25%, the “antianxiety activity (in words, from Table II)” value [1] was “especially active as antianxiety agents” and the inhibition at 30 mg/kg [2] was 63%.

With `Cc1ccc(CC(C2=NNCCN2)c2ccccc2)cc1C` (stereo not drawn) [Example 12] the response vs control in vivo at 20 mg/kg [1] was 33%, the “antianxiety activity (in words, from Table II)” value [1] was “especially active as antianxiety agents” and the inhibition at 30 mg/kg [2] was 25%.

`Cc1cccc(CC(C2=NNCCN2)c2ccccc2)c1` (stereo not drawn) [Example 5] showed a response vs control in vivo at 20 mg/kg [1] of 32% and an inhibition at 30 mg/kg [2] of 25%.

`Cc1ccc(C(Cc2ccccc2)C2=NNCCN2)cc1` (stereo not drawn) [Example 4, 3-(1-(4-Methylphenyl)-2-phenylethyl)-1,4,5,6-tetrahydro-1,2,4-triazine monohydrochloride] gave a response vs control in vivo at 20 mg/kg [1] of 67% and an inhibition at 30 mg/kg [2] of 38%.

For `Cl.Clc1ccc(CC(C2=NNCCN2)c2ccccc2)cc1` (stereo not drawn) [Example 2, 3-(2-(4-Chlorophenyl)-1-phenylethyl)-1,4,5,6-tetrahydro-1,2,4-triazine monohydrochloride], the response vs control in vivo at 20 mg/kg [1] was 13%, the “antianxiety activity (in words, from Table II)” value [1] was “especially active as antianxiety agents” and the inhibition at 30 mg/kg [2] was 88%.

With `c1ccc(C(Cc2ccc3ccccc3c2)C2=NNCCN2)cc1` (stereo not drawn) [Example 16] the response vs control in vivo at 20 mg/kg [1] was 39%, the “antianxiety activity (in words, from Table II)” value [1] was “especially active as antianxiety agents” and the inhibition at 30 mg/kg [2] was 42%.

`Cc1cccc(C(Cc2ccccc2)C2=NNCCN2)c1` (stereo not drawn) [Example 8] gave a response vs control in vivo at 20 mg/kg [1] of 52% and an inhibition at 30 mg/kg [2] of 38%.

Compound `c1ccc(CC(C2=NNCCN2)c2cccc3ccccc23)cc1` (stereo not drawn) [Example 11] has a response vs control in vivo at 20 mg/kg [1] of 77% and an inhibition at 30 mg/kg [2] of 25%.

In the case of `c1ccc(CC(C2=NNCCN2)c2ccc3c(c2)OCO3)cc1` (stereo not drawn) [Example 9], the response vs control in vivo at 20 mg/kg [1] is reported as 33%, the “antianxiety activity (in words, from Table II)” value [1] is reported as “especially active as antianxiety agents” and the inhibition at 30 mg/kg [2] is reported as 50%.

Compound `c1ccc(C(Cc2cccc3ccccc23)C2=NNCCN2)cc1` (stereo not drawn) [Example 15] has a response vs control in vivo at 20 mg/kg [1] of 72% and an inhibition at 30 mg/kg [2] of 13%.

Compound `Clc1cccc(CC(C2=NNCCN2)c2ccccc2)c1` (stereo not drawn) [Example 7] has a response vs control in vivo at 20 mg/kg [1] of 75% and an inhibition at 30 mg/kg [2] of 88%.

For `c1ccc(CC(C2=NNCCN2)c2ccccc2)cc1` (stereo not drawn) [3-(1,2-diphenylethyl)-1,4,5,6-tetrahydro-1,2,4-triazine], the “antidepressant activity of prior-art compound (in words)” value [3] is given as “antidepressant” and the “antianxiety activity of prior-art compound (in words)” value [4] is given as “essentially inactive”.
